Experimental findings from patent publication US20130196050A1, “SALTY TASTE ENHANCER” (AJINOMOTO CO., INC., priority 2010, published 2013) are described below.

Each structure is given as a SMILES string.

The target in the test is T1, Human ENaC δ, β and γ subunit (Homo sapiens, UniProt P51168+P51170+P51172).
T1 construct: expressed in transfected cells; host or cells: Xenopus laevis (African clawed frog) oocytes injected with cRNA
T1 sequence (P51172 1-638 isoform P51172-1): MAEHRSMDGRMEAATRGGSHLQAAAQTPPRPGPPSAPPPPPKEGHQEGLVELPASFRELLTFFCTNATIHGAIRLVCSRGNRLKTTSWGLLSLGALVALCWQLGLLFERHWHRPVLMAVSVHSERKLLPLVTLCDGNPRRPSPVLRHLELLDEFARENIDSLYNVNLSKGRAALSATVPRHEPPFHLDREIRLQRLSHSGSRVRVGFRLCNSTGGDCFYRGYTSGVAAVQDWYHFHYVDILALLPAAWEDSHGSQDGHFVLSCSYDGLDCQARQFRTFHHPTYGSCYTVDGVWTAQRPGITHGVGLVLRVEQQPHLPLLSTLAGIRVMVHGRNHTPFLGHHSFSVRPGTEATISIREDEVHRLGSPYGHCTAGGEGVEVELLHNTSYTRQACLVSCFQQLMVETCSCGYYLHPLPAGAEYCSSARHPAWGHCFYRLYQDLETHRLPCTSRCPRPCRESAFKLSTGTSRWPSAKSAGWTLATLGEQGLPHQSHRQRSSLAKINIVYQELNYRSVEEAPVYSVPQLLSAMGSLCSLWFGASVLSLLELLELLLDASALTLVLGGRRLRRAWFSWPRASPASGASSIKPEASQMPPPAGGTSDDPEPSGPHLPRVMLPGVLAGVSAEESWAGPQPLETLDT
T1 sequence (P51168 1-640): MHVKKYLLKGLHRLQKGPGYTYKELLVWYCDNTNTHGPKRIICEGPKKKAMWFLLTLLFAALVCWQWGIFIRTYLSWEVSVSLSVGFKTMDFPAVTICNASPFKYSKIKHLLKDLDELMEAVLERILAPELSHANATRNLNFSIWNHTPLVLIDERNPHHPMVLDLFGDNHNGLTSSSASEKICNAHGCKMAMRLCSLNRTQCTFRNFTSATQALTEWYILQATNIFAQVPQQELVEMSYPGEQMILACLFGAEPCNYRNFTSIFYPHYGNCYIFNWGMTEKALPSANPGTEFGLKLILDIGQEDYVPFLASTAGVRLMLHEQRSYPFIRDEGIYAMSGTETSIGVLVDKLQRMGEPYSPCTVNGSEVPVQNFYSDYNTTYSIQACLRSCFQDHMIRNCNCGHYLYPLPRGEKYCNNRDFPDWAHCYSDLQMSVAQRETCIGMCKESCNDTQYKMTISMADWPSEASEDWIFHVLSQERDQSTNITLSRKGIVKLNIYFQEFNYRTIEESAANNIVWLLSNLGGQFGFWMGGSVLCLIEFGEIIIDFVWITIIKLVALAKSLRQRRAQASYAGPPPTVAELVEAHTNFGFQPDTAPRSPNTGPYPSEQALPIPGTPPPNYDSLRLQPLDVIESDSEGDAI
T1 sequence (P51170 1-649): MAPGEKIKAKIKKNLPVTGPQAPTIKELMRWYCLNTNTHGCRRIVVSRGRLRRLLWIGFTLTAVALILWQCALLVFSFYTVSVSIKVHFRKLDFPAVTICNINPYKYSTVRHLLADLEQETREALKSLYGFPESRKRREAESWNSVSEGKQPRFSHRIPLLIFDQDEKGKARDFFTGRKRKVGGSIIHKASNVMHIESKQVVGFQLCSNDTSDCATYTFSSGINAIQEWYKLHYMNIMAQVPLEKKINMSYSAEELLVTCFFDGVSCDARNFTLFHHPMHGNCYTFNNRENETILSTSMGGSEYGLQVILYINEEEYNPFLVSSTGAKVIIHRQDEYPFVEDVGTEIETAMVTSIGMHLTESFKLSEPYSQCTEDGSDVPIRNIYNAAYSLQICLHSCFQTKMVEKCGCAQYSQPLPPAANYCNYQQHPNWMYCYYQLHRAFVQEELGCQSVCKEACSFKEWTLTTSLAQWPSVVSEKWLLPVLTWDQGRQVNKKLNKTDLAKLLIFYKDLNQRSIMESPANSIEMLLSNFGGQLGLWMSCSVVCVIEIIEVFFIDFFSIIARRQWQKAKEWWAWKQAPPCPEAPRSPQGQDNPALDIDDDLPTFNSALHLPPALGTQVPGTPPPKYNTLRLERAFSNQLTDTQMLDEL
In words: Measurement of ENaC activation potency (two electrode voltage clamp current in ENaC-expressing oocyte). Type of test: cell-based. In outline:
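Xenopus oocytes were injected with human ENaC δ, β and γ cRNA, cultured 16–72 h, and voltage-clamped by two-electrode clamp at −30 mV below resting potential in ND96 (pH 7.6) perfusion. Compounds (0.1 nM–300 μM) were added in rising concentrations at 3-min intervals. MED was the first concentration raising current by ≥10% over pre-addition current.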

Regarding `O=C(NCCc1c[nH]c2ccc(O)cc12)c1c(O)cccc1O` [Example 35, 2,6-dihydroxy-N-(2-(5-hydroxy-1H-indol-3-yl)ethyl)benzamide], the “concentration from which the ENaC activation current starts to increase” value (FIG. 3) was found to be 0.00001 g/dL. Also, the “concentration at which the ENaC activation current reaches the maximum current value” (FIG. 3, almost constant up to 0.0080 g/dl) amounted to 0.0020 g/dL. The “MED value (minimum effective dose)” value (lowest concentration increasing the current value by not less than 10% vs before addition) is 0.1 to 0.3 µM.
